{"source": "patent US20160058304A1", "about": "“SYSTEM AND METHOD FOR VESSEL ARCHITECTURAL IMAGING” (priority 2013, published 2016)", "key": {"recurrent glioblastomas [1]": {"system": "recurrent glioblastomas", "test": "Phase II clinical trial of cediranib in recurrent glioblastoma, retrospective VAI (MRI) analysis", "type": "in vivo, human", "description": "The study was approved by the institutional review board and informed consent was obtained from all subjects. Subject data included 13 females and 17 males diagnosed with a recurrent glioblastoma, average age 52 years, range 20-78 years. After study termination, nine subjects received one subsequent cycle of salvage chemotherapy, eight subjects received two cycles, one subject received three cycles, two subjects had undisclosed information on salvage chemotherapy and one subject received stereotactic radiosurgery.\nBaseline MRI examinations were acquired prior to therapy onset (days −5 and −1), and then repeated on days 1, 28, 56 and 112 after cediranib (AstraZeneca Pharmaceuticals) anti-angiogenic therapy onset or until disease progression according to the Macdonald criteria. All imaging were performed on a 3 Tesla Magnetom Trio MRI system (Siemens Medical Solutions) as follows:\n4. Dynamic susceptibility contrast (DSC) perfusion images. Axial dual-echo echo-planar images with repetition-time 1.33 s, echo-times 34 ms and 103 ms, slice-thickness 5 mm, inter-slice distance 2.5 mm, in-plane resolution 1.70:1.70 mm, matrix size 128:128, 10 slices and 120 volumes. After approximately 85 s of imaging, a 0.2 mmol kg−1 dose of Gd-DTPA was injected at 5 cc s−1.\nWe obtained relaxation rate curves for VAI analysis, perfusion values, blood volumes and mean transit times using established tracer kinetic models on the DSC images, corrected for contrast agent leakage (from blood-brain-barrier breakdown or resection) and fitted to a gammavariate curve for better visualization of vessel vortex effects. It has been speculated that contrast agent leakage is the reason for the clockwise vortex effect. […] Here, the pre-dose of Gd-DTPA during DCE imaging saturated potential leaky tumor tissue in the DSC images thereby minimizing the influence of leakage-induced T1-shortening effects. Relaxation rate curves not suited for analysis, conveying highly fluctuating time-courses from partial volume effects, voxel shifts and physiological pulsations were excluded from further analysis. Across all 30 subjects, an average of 78.21 percent±12.78 percent (standard deviation) of all tumor voxels met the inclusion criteria. To account for potential global systemic effects from hypertension, tumor relaxation rate curves were scaled with corresponding slice-specific mean, normal-tissue reference curves. In all figures showing vessel vortex curves, the tails of the vortex curves have been cut short to better visualize vortex direction. VAI analysis was performed using custom-made software in Matlab and traditional MRI was analyzed in nordicICE (NordicNeuroLab AS).\nA subject was assumed to have an increase (decrease) in voxels with a clockwise vortex direction if the clockwise- to counter-clockwise ratio was higher (lower) than the 95 percent confidence interval of the population arithmetic mean for two consecutive imaging time points. […] Differences in VAI parameters during therapy were assessed using pairwise Wilcoxons Signed Rank test. Differences in tumor volumes, vessel caliber, permeability, perfusion and mean transit times were assessed using Mann-Whitney tests. Associations between changes in vessel vortex direction ratios and progression-free survival and overall survival were assessed using multinomial logistic regression, Kaplan-Meier survival analysis and Cox regression after adjustments for age, extent of resection, neurological performance, salvage chemotherapy and stereotactic radiosurgery after study termination as well as changes in permeability (Ktrans), T1-weighted contrast-enhanced tumor volume and T2-weighted FLAIR tumor volume prior to, and during, anti-angiogenic therapy. For all tests, P=0.05 was considered significant (with Holm-Bonferroni correction for multiple comparisons) and pixel values below a 5 percent percentile and above a 95 percent percentile were removed prior to analysis to reduce the influence of outliers. […]"}, "recurrent glioblastomas [2]": {"system": "recurrent glioblastomas", "settings": "background statement on cediranib trial; cited from earlier work"}}, "data": [{"molecule": "COc1cc2c(Oc3ccc4[nH]c(C)cc4c3F)ncnc2cc1OCCCN1CCCC1", "note": "[cediranib]", "values": [{"measurement": "Relative number of image voxels with a clockwise vortex direction in the tumor after therapy onset", "setting": "recurrent glioblastomas [1]; 30 subjects collectively, pair-wise Wilcoxons Signed Ranks test P<0.05", "result": "significant increase"}, {"measurement": "Median overall survival, nonresponders", "setting": "recurrent glioblastomas [1]; non-responders = relative decrease in image voxels with clockwise vortex direction, recurrent glioblastoma", "result": 146, "unit": "days"}, {"measurement": "Median overall survival, non-responding patients", "setting": "recurrent glioblastomas [1]; non-responders with stable or reduced perfusion, P<0.001", "result": 169, "unit": "days"}, {"measurement": "Median overall survival, responding subjects", "setting": "recurrent glioblastomas [1]; responders = relative increase in image voxels with clockwise vortex direction at two consecutive imaging time points, recurrent glioblastoma", "result": 341, "unit": "days"}, {"measurement": "Longer survival of responding vs non-responding patients", "setting": "recurrent glioblastomas [1]; responders by increased perfusion vs non-responders", "result": "approximately 6 months"}, {"measurement": "Shunt index values at days 1 and 28", "setting": "recurrent glioblastomas [1]; responders by vascular normalization compared to non-responders, P<0.05", "result": "reduced"}, {"measurement": "Median overall survival, responding patients", "setting": "recurrent glioblastomas [1]; responders identified by increased perfusion (vascular normalization), P<0.001", "result": 348, "unit": "days"}, {"measurement": "Contrast enhanced and FLAIR tumor volumes at day 28", "setting": "recurrent glioblastomas [1]; responders vs non-responders, Mann-Whitney P<0.05", "result": "significant reductions"}, {"measurement": "Whole-tumor vessel calibers compared to pre-treatment", "setting": "recurrent glioblastomas [1]; responding subjects, P<0.01", "result": "significant reductions"}, {"measurement": "Longer survival of patients whose tumor perfusion increased during treatment", "setting": "recurrent glioblastomas [2]", "result": "approximately 6 months"}]}]}
